Experimental data: PubChem BioAssay AID192 (DTP/NCI, 2004)
Values joined by “and” are separate entries in the source; they are usually repeats but may differ in a detail not shown here. Identical values can stand only once. Toxic doses and inconclusive results are not listed.

System: BDF1 mice, B16 melanoma ip, median survival T/C
Assay: NCI In Vivo Anticancer Drug Screen. Data for tumor model B16 Melanoma (intraperitoneal) in B6D2F1 (BDF1) mice
Conditions: endpoint: median survival time, higher = longer survival
How it was run: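 In this screen, activity was judged from survival or tumor size in treated versus vehicle-treated tumor-bearing mice, reported as T/C.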

[1] = dose: 200.0 mg/kg/injection, schedule: Q01DX009 (ip), vehicle: Klucel (hydroxypropylcellulose) (HPC)
[2] = dose: 200.0 mg/kg/injection, schedule: Q04DX003 (ip), vehicle: Klucel (hydroxypropylcellulose) (HPC)
[3] = dose: 25.0 mg/kg/injection, schedule: Q01DX009 (ip), vehicle: saline with Tween-80
[4] = dose: 50.0 mg/kg/injection, schedule: Q01DX009 (ip), vehicle: saline with Tween-80
[5] = dose: 100.0 mg/kg/injection, schedule: Q01DX009 (ip), vehicle: saline with Tween-80
[6] = dose: 12.5 mg/kg/injection, schedule: Q01DX009 (ip), vehicle: Klucel (hydroxypropylcellulose) (HPC)
[7] = dose: 25.0 mg/kg/injection, schedule: Q01DX009 (ip), vehicle: Klucel (hydroxypropylcellulose) (HPC)
[8] = dose: 50.0 mg/kg/injection, schedule: Q01DX009 (ip), vehicle: Klucel (hydroxypropylcellulose) (HPC)
[9] = dose: 6.25 mg/kg/injection, schedule: Q01DX009 (ip), vehicle: Klucel (hydroxypropylcellulose) (HPC)
[10] = dose: 200.0 mg/kg/injection, schedule: Q01DX009 (ip), vehicle: saline
[11] = dose: 400.0 mg/kg/injection, schedule: Q01DX009 (ip), vehicle: saline
[12] = dose: 100.0 mg/kg/injection, schedule: Q01DX009 (ip), vehicle: Klucel (hydroxypropylcellulose) (HPC)
[13] = dose: 6.25 mg/kg/injection, schedule: Q01DX009 (ip), vehicle: saline with Tween-80
[14] = dose: 12.5 mg/kg/injection, schedule: Q01DX009 (ip), vehicle: saline with Tween-80
[15] = dose: 400.0 mg/kg/injection, schedule: Q01DX009 (ip), vehicle: Klucel (hydroxypropylcellulose) (HPC)

C=C1CCN(c2ccc([N+](=O)[O-])cc2)C1=O
T/C (dose: 4.0 mg/kg/injection, schedule: Q01DX009 (ip), vehicle: saline + alcohol): 97 % of control | T/C (dose: 8.0 mg/kg/injection, schedule: Q01DX009 (ip), vehicle: saline + alcohol): 107 % of control | T/C (dose: 16.0 mg/kg/injection, schedule: Q01DX009 (ip), vehicle: saline + alcohol): 98 % of control | T/C (dose: 32.0 mg/kg/injection, schedule: Q01DX009 (ip), vehicle: saline + alcohol): 89 % of control | T/C (dose: 64.0 mg/kg/injection, schedule: Q01DX009 (ip), vehicle: saline + alcohol): 95 % of control

COC(=O)/C=C/NC(=O)c1ccccc1C(=O)OC
T/C (dose: 100.0 mg/kg/injection, schedule: Q04DX003 (ip), vehicle: Klucel (hydroxypropylcellulose) (HPC)): 86 % of control | T/C [1]: 97 % of control | T/C [2]: 86 % of control

CS(=O)(=O)OCCC(=O)N1CCN(C(=O)CCOS(C)(=O)=O)CC1
T/C (dose: 1.56 mg/kg/injection, schedule: Q01DX009 (ip), vehicle: suspension in saline): 114 % of control | T/C (dose: 3.12 mg/kg/injection, schedule: Q01DX009 (ip), vehicle: suspension in saline): 111 % of control | T/C (dose: 6.25 mg/kg/injection, schedule: Q01DX009 (ip), vehicle: suspension in saline): 114 % of control | T/C (dose: 12.5 mg/kg/injection, schedule: Q01DX009 (ip), vehicle: suspension in saline): 124 % of control | T/C [3]: 150 % of control | T/C [4]: 152 % of control and 170 % of control | T/C (dose: 50.0 mg/kg/injection, schedule: Q01DX009 (ip), vehicle: suspension in saline): 171 % of control | T/C [5]: 160 % of control

CCNC(Cc1ccccc1)c1ccc(OC)cc1 (stereo not given)
T/C [6]: 106 % of control | T/C [7]: 100 % of control | T/C [8]: 113 % of control

CNC(C)C1(O)Cc2c(O)c3c(c(O)c2C(OC2CC(N)C(O)C(C)O2)C1)C(=O)c1c(OC)cccc1C3=O (stereo not given)
T/C (dose: 0.5 mg/kg/injection, schedule: Q01DX009 (ip), vehicle: water): 108 % of control | T/C (dose: 1.0 mg/kg/injection, schedule: Q01DX009 (ip), vehicle: water): 112 % of control | T/C (dose: 4.0 mg/kg/injection, schedule: Q01DX009 (ip), vehicle: water): 163 % of control | T/C (dose: 8.0 mg/kg/injection, schedule: Q01DX009 (ip), vehicle: water): 172 % of control

O=C1N(c2nncs2)CCN1[N+](=O)[O-]
T/C [6]: 91 % of control | T/C [7]: 102 % of control | T/C [8]: 100 % of control | T/C [1]: 87 % of control

CC(C)=CCC(O)C1=CC(=O)c2c(O)ccc(O)c2C1=O (stereo not given)
T/C (dose: 1.25 mg/kg/injection, schedule: Q01DX009 (ip), vehicle: Klucel (hydroxypropylcellulose) (HPC)): 107 % of control | T/C (dose: 2.5 mg/kg/injection, schedule: Q01DX009 (ip), vehicle: Klucel (hydroxypropylcellulose) (HPC)): 102 % of control | T/C (dose: 5.0 mg/kg/injection, schedule: Q01DX009 (ip), vehicle: Klucel (hydroxypropylcellulose) (HPC)): 92 % of control | T/C (dose: 10.0 mg/kg/injection, schedule: Q01DX009 (ip), vehicle: Klucel (hydroxypropylcellulose) (HPC)): 87 % of control

CC(CC1c2ccccc2CCc2ccccc21)CN(C)C (stereo not given)
T/C (dose: 1.25 mg/kg/injection, schedule: Q01DX009 (ip), vehicle: saline): 98 % of control | T/C (dose: 2.5 mg/kg/injection, schedule: Q01DX009 (ip), vehicle: saline): 106 % of control | T/C (dose: 5.0 mg/kg/injection, schedule: Q01DX009 (ip), vehicle: saline): 94 % of control | T/C (dose: 6.25 mg/kg/injection, schedule: Q01DX009 (ip), vehicle: saline): 113 % of control | T/C (dose: 10.0 mg/kg/injection, schedule: Q01DX009 (ip), vehicle: saline): 106 % of control | T/C (dose: 12.5 mg/kg/injection, schedule: Q01DX009 (ip), vehicle: saline): 119 % of control | T/C (dose: 20.0 mg/kg/injection, schedule: Q01DX009 (ip), vehicle: saline): 106 % of control | T/C (dose: 40.0 mg/kg/injection, schedule: Q01DX009 (ip), vehicle: saline): 101 % of control | T/C (dose: 80.0 mg/kg/injection, schedule: Q01DX009 (ip), vehicle: saline): 92 % of control

N#CCN1CCCCC1
T/C (dose: 0.39 mg/kg/injection, schedule: Q01DX009 (ip), vehicle: saline): 96 % of control | T/C (dose: 0.78 mg/kg/injection, schedule: Q01DX009 (ip), vehicle: saline): 100 % of control | T/C (dose: 1.56 mg/kg/injection, schedule: Q01DX009 (ip), vehicle: saline): 102 % of control

C=C(Br)CN(CC)CC
T/C [9]: 100 % of control | T/C [6]: 92 % of control | T/C [7]: 103 % of control

COc1ccc(NC(=O)Nc2ccc(OC)cc2)cc1
T/C [10]: 120 % of control | T/C [11]: 116 % of control

CCCCC(CC)C(O)C1CCCCC1O (stereo not given)
T/C [12]: 100 % of control | T/C [1]: 89 % of control

COC1=CC(=O)C(C2CC(=O)c3c(O)cc(O)cc3O2)=CC1=O (stereo not given)
T/C (dose: 3.13 mg/kg/injection, schedule: Q01DX009 (ip), vehicle: saline with Tween-80): 102 % of control | T/C [13]: 91 % of control | T/C [14]: 89 % of control

CCC(C)C(=O)OC1C(=O)OC2CC3C(C)=CC(=O)C(O)C3(C)C3C4(O)OCC23C1C(C)C4O (stereo not given)
T/C (dose: 1.4 mg/kg/injection, schedule: Q01DX009 (ip), vehicle: saline): 157 % of control | T/C (dose: 2.8 mg/kg/injection, schedule: Q01DX009 (ip), vehicle: saline with Tween-80): 153 % of control

CC(C(=O)O)C(=O)O.[NH-]CC[NH-].[Pt+2]
T/C (dose: 3.12 mg/kg/injection, schedule: Q01DX009 (ip), vehicle: water): 150 % of control | T/C (dose: 6.25 mg/kg/injection, schedule: Q01DX009 (ip), vehicle: water): 162 % of control | T/C (dose: 12.5 mg/kg/injection, schedule: Q01DX009 (ip), vehicle: water): 179 % of control | T/C (dose: 25.0 mg/kg/injection, schedule: Q01DX009 (ip), vehicle: water): 211 % of control

O=C1NNC(=O)NN1
T/C [12]: 118 % of control | T/C [1]: 106 % of control

CCCN(C(=O)CCl)c1ccccc1
T/C (dose: 3.13 mg/kg/injection, schedule: Q01DX009 (ip), vehicle: Klucel (hydroxypropylcellulose) (HPC)): 94 % of control | T/C [9]: 91 % of control | T/C [6]: 92 % of control

O=C(Cl)C1(Br)CC2c3ccccc3C1([N+](=O)[O-])c1ccccc12 (stereo not given)
T/C [6]: 100 % of control | T/C [7]: 97 % of control | T/C [8]: 97 % of control | T/C [12]: 91 % of control | T/C [1]: 88 % of control

Cc1cc(C)nc(NC(=O)COc2ccc(Cl)cc2)c1
T/C [6]: 97 % of control | T/C [8]: 97 % of control and 106 % of control

CN(C)CCC[N+]1([O-])c2ccccc2CCc2ccccc21
T/C (dose: 4.68 mg/kg/injection, schedule: Q01DX009 (ip), vehicle: saline): 97 % of control | T/C (dose: 9.37 mg/kg/injection, schedule: Q01DX009 (ip), vehicle: saline): 118 % of control | T/C (dose: 18.75 mg/kg/injection, schedule: Q01DX009 (ip), vehicle: saline): 95 % of control | T/C (dose: 37.5 mg/kg/injection, schedule: Q01DX009 (ip), vehicle: saline): 100 % of control | T/C (dose: 75.0 mg/kg/injection, schedule: Q04DX003 (ip), vehicle: saline): 96 % of control

CC(C)(C)CC(N)=O
T/C [8]: 112 % of control | T/C [12]: 100 % of control | T/C (dose: 100.0 mg/kg/injection, schedule: Q01DX009 (ip), vehicle: saline): 107 % of control | T/C [1]: 105 % of control | T/C [10]: 123 % of control | T/C [15]: 105 % of control | T/C [11]: 107 % of control

CC(C)C1(c2ccsc2)NC(=O)NC1=O (stereo not given)
T/C [8]: 108 % of control | T/C [12]: 122 % of control | T/C [1]: 109 % of control

CC(Cl)CN(CC(C)Cl)C(=O)OCC(NC(=O)OCc1ccccc1)C(=O)OCc1ccccc1 (stereo not given)
T/C (dose: 12.5 mg/kg/injection, schedule: Q04DX003 (ip), vehicle: Klucel (hydroxypropylcellulose) (HPC)): 86 % of control | T/C (dose: 25.0 mg/kg/injection, schedule: Q04DX003 (ip), vehicle: Klucel (hydroxypropylcellulose) (HPC)): 86 % of control | T/C (dose: 50.0 mg/kg/injection, schedule: Q04DX003 (ip), vehicle: Klucel (hydroxypropylcellulose) (HPC)): 86 % of control | T/C [12]: 97 % of control | T/C [1]: 97 % of control | T/C [2]: 93 % of control | T/C [15]: 88 % of control

Cn1nc(-c2ccccc2)nc1[N+](=O)[O-]
T/C [14]: 100 % of control | T/C [3]: 96 % of control | T/C [4]: 106 % of control | T/C [5]: 86 % of control

COc1ccc(OC)c(NC=O)c1
T/C [13]: 91 % of control | T/C [14]: 106 % of control | T/C [3]: 90 % of control and 97 % of control
